Measurements reported in publication PMC8553373 (The Journal of Biological Chemistry, 2021).

Molecular target: Nsp9COV19(C73S) as substrate of Nsp12COV19 NiRAN domain (Severe acute respiratory syndrome coronavirus 2, UniProt P0DTD1, C4213S)
Type: biochemical, SARS-CoV-2

SMILES: C=C1C(=O)[C@]23[C@H](O)[C@H]1CC[C@H]2[C@@]12CO[C@]3(O)[C@@H](O)[C@@H]1C(C)(C)CC[C@@H]2O [Compound 1, Oridonin]
- level of inhibition with mutant Nsp9 compared with wild-type: approximately threefold lower
